Source: patent US12583826B2, “[(1,5-diphenyl-1H-1,2,4-triazol-3-yl)oxy]acetic acid derivatives and salts thereof, crop protection compositions comprising them, methods for producing them and use thereof as safeners” (Bayer Aktiengesellschaft, priority 2019, dated 2026)

Assays:
[1] = system: summer wheat (TRZAS; cv. Triso); test: Absolute action: reduction of damage by mesosulfuron-methyl on summer wheat, greenhouse post-emergence; type: in vivo; details: for Absolute reduction in herbicide damage (damage without safener minus damage with safener): mesosulfuron-methyl 20 g/ha; for Herbicide damage with compound of the formula (I): then mesosulfuron-methyl 20 g/ha, visual 0-100% scale, 14-21 days after application
Experimental: (§1) 2.1 Absolute Action of Selected Compounds of the Invention Using the Example of Reduction of Damage by Mesosulfuron-Methyl on Summer Wheat (TRZAS) The seeds of the crop plants to be treated are laid out in sandy loam in wood fiber or plastic pots (diameter ˜4 cm), covered with soil and grow in a greenhouse under good conditions for germination and growth. The trial plants were treated at the early leaf stage (BBCH10—BBCH12). In the course of this, the inventive compounds of the general formula (I) formulated in the form of wettable powders (WP) were sprayed onto the above-ground parts of the plants as an aqueous suspension with a water application rate corresponding to 800 l/ha with addition of wetting agent (e.g. 0.2% agrotin) in the specified dose. This was followed by the application of the herbicide. For this purpose, mesosulfuron-methyl, formulated in the form of water-dispersible granules (WG), was sprayed onto the above-ground parts of the plants in the form of an aqueous dispersion with a water application rate corresponding to 800 l/ha with addition of wetting agent (e.g. 0.2% agrotin) in a dose of 20 g/ha. The dose of the herbicide was chosen here such that it causes visually apparent damage (min. 30%, max. 75%) compared to untreated crop plants at the evaluation time on a control group of crop plants without safener treatment that were included in the same trial. After application, the plants were cultivated under good growth conditions in a greenhouse. The damage was visually assessed 14-21 days after application. The damage effect was assessed visually on a scale of 0-100% by comparison with untreated control plants, and averaged over 2-3 repeats per treatment. Examples: • 0%=no noticeable effect compared to the untreated plant • 20%=the treated plant population has 20% damage compared to the untreated control population (e.g. growth height, leaf damage, etc.) • 100%=treated plants completely damaged/killed.

[2] = system: summer barley (HORVS; cv. Montoya); test: Absolute action: reduction of damage by mesosulfuron-methyl on summer barley, greenhouse post-emergence; type: in vivo; details: for Absolute reduction in damage (difference): mesosulfuron-methyl 20 g/ha, damage without minus with safener; for Herbicide damage with compound of the formula (I) (%): then mesosulfuron-methyl 20 g/ha, visual 0-100% scale, 14-21 days after application
Experimental: as §1, with “2.2 Absolute Action” for “2.1 Absolute Action”, “on Summer Barley (HORVS) The seeds” for “on Summer Wheat (TRZAS) The seeds”, “treated are aid out in” for “treated are laid out in”, “soil and grown in a” for “soil and grow in a”, “leaf stage (BBCE10-BBCH12). In the” for “leaf stage (BBCH10—BBCH12). In the”, “control population (e.g.: growth height,” for “control population (e.g. growth height,”

SMILES | Absolute reduction in herbicide damage (damage without safener minus damage with safener) ([1]; safener 125 g a.i./ha) | Herbicide damage with compound of the formula (I) ([1]; safener 125 g a.i./ha) | Absolute reduction in herbicide damage (damage without safener minus damage with safener) ([1]; safener 500 g a.i./ha) | Herbicide damage with compound of the formula (I) ([1]; safener 500 g a.i./ha) | Absolute reduction in damage (difference) ([2]; safener 125 g a.i./ha) | Herbicide damage with compound of the formula (I) (%) ([2]; safener 125 g a.i./ha) | Absolute reduction in damage (difference) ([2]; safener 500 g a.i./ha) | Herbicide damage with compound of the formula (I) (%) ([2]; safener 500 g a.i./ha) | Absolute reduction in herbicide damage (damage without safener minus damage with safener) ([1]; safener 250 g/ha) | Herbicide damage with compound of the formula (I) ([1]; safener 250 g/ha) | Absolute reduction in damage (difference) ([2]; safener 1000 g a.i./ha) | Herbicide damage with compound of the formula (I) (%) ([2]; safener 1000 g a.i./ha)
COC(=O)COc1nc(-c2ccccc2F)n(-c2ccc(Cl)cc2Cl)n1 [I.4-32] | 34% | 23% | 47% | 10% | 20% | 37% | 44% | 13% |  |  |  | 
COC(=O)COc1nc(-c2ccc(Cl)cc2Cl)n(-c2ccc(Cl)cc2Cl)n1 [I.43-32] | 33% | 30% | 43% | 20% | 26% | 37% | 33% | 30% |  |  |  | 
O=C(O)COc1nc(-c2ccc(F)cc2)n(-c2ccc(Cl)cc2)n1 [I.12-7] |  |  |  |  |  |  |  |  | 23% | 20% | 20% | 40%
O=C(O)COc1nc(-c2ccccc2F)n(-c2ccc(F)cc2F)n1 [I.6-38] | 50% | 17% |  |  | 53% | 20% |  |  |  |  |  | 
COC(=O)COc1nc(-c2ccc(Cl)cc2Cl)n(-c2ccc(Cl)cc2F)n1 [I.43-49, Methyl {[1-(4-chloro-2-fluorophenyl)-5-(2,4-dichlorophenyl)-1H-1,2,4-triazol-3-yl]oxy}acetate] | 36% | 27% | 40% | 23% | 30% | 33% | 33% | 30% |  |  |  | 
O=C(O)COc1nc(-c2ccc(Cl)cc2Cl)n(-c2ccc(Cl)cc2F)n1 [I.45-49, {[1-(4-Chloro-2-fluorophenyl)-5-(2,4-dichlorophenyl)-1H-1,2,4-triazol-3-yl]oxy}acetic acid] | 20% | 43% | 23% | 40% | 20% | 40% | 30% | 30% |  |  |  | 
O=C(O)COc1nc(-c2ccc(Cl)cc2Cl)n(-c2ccc(F)cc2F)n1 [I.45-38] | 33% | 30% | 43% | 20% | 30% | 30% | 40% | 20% |  |  |  | 
CCOC(=O)COc1nc(-c2ccc(Cl)cc2Cl)n(-c2ccc(Cl)cc2F)n1 [I.44-49] | 43% | 10% | 46% | 7% | 30% | 30% |  |  |  |  |  | 
